Laboratory results published in patent US10329295B2, “Pyrrolotriazine inhibitors of IRAK4 activity” (MERCK SHARP & DOHME CORP., priority 2015, dated 2019).
Counter-ions that a name gives are not always drawn.

Target: GST tagged IRAK4 (Homo sapiens (Human), UniProt Q9NWZ3)
Assay: IRAK4 Kinase Assay (IMAP fluorescence polarization)
Type: biochemical
Details: 0.5 nM GST tagged IRAK4, 100 μM ATP, 30 minutes at 25° C.
How it was run: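 Reactions contained 0.5 nM GST-IRAK4, 100 nM fluorescent peptide substrate and 100 μM ATP in 10 mM Tris-HCl pH 7.2 with 1 mM MgCl2, and were started with ATP. After 30 minutes at 25° C they were stopped with IMAP reagent. Substrate phosphorylation was read as the change in fluorescence polarization.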

Chain of GST tagged IRAK4 (Q9NWZ3 whole entry): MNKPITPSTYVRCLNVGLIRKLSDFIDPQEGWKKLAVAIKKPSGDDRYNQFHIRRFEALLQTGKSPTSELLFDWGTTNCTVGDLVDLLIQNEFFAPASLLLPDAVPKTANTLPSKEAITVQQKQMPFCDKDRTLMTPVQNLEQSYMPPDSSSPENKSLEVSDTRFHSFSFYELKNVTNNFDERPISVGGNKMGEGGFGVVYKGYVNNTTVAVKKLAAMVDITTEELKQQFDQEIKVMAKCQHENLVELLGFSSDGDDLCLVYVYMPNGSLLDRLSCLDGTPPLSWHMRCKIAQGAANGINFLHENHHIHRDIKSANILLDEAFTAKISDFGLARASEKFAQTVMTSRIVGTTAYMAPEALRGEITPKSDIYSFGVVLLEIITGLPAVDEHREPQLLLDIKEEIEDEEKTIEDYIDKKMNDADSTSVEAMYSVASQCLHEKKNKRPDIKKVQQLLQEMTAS

Row | IC50 [nM] | SMILES
1 | 0.5 | Cn1cc(NC(=O)c2ccc3cnc(N[C@H]4CNC[C@@H](F)C4)nn23)c(C(F)F)n1 [Example 159, N-[3-(difluoromethyl)-1-methyl-1H-pyrazol-4-yl]-2-{[(3R,5S)-5-fluoropiperidin-3-yl]amino}pyrrolo[2,1-f][1,2,4]triazine-7-carboxamide]
2 | 3 | N[C@H]1CCCC[C@H]1Nc1ncc2ccc(C(=O)Nc3ccsc3Cl)n2n1 [Example 30, 2-{[(1R,2S)-2-aminocyclohexyl]amino}-N-(2-chlorothiophen-3-yl)pyrrolo[2,1-f][1,2,4]triazine-7-carboxamide trifluoroacetate]
3 | 2 | Cn1cc(NC(=O)c2ccc3cnc(N4CCNCC5(CC5)C4)nn23)c(C(F)F)n1 [Example 20, 2-(5,8-diazaspiro[2.6]non-5-yl)-N-[3-(difluoromethyl)-1-methyl-1H-pyrazol-4-yl]pyrrolo[2,1-f][1,2,4]triazine-7-carboxamide trifluoroacetate]
